Measurements as given in ChEMBL document CHEMBL1157845, “Structure-activity relationship of new anti-tuberculosis agents derived from oxazoline and oxazole benzyl esters” (Eur J Med Chem, 2010).
Converted amounts (≈) assume the structure as drawn. The source made the active and inactive calls. Unless noted, the calls are words filed in the database; no cut-off is given here.

Tests used:
[1] = tested on: Mycobacterium tuberculosis; test: Antimycobacterial activity against Mycobacterium tuberculosis Erdman infected in BALB/c mouse assessed as reduction of bacterial load at 10 mg/kg, po qd for 5 days per week administered 60 days after infection measured after 85 days post infection relative to untreated control; type: functional
[2] = tested on: Mycobacterium tuberculosis; test: Antimycobacterial activity against Mycobacterium tuberculosis H37Rv ATCC 27294 in GAS medium after 1 week by microplate alamar blue assay; type: functional; details: H37Rv ATCC 27294, 168 h
[3] = tested on: Mycobacterium tuberculosis; test: Antimycobacterial activity against Mycobacterium tuberculosis H37Rv ATCC 27294 in GAST medium after 1 week by microplate alamar blue assay; type: functional; details: H37Rv ATCC 27294, 168 h
Vero = test: Cytotoxicity against african green monkey Vero cells by colorimetric assay; type: cell-based; details: Chlorocebus sabaeus
[4] = tested on: Mycobacterium tuberculosis; test: Antimycobacterial activity against Mycobacterium tuberculosis Erdman infected in BALB/c mouse assessed as reduction of bacterial load at 200 mg/kg, po qd for 5 days per week administered 60 days after infection measured after 85 days post infection; type: functional, organism-based; parameters: dose 200 mg/kg
[5] = tested on: Mycobacterium tuberculosis; test: Antimycobacterial activity against Mycobacterium tuberculosis H37Rv; type: functional
[6] = tested on: Mycolicibacterium smegmatis; test: Antimycobacterial activity against Mycobacterium smegmatis; type: functional
Escherichia coli = test: Antibacterial activity against Escherichia coli SG 458; type: functional, organism-based
Proteus vulgaris = test: Antibacterial activity against Proteus vulgaris OX 19; type: functional, organism-based
[7] = tested on: Mycolicibacterium smegmatis; test: Antimycobacterial activity against Mycobacterium smegmatis SG 987; type: functional, organism-based
Mycolicibacterium aurum [8] = test: Antimycobacterial activity against Mycobacterium aurum SB 66; type: functional, organism-based
Mycolicibacterium aurum [9] = test: Antimycobacterial activity against Mycobacterium aurum DSM 43536; type: functional, organism-based
Mycolicibacterium vaccae [10] = test: Antimycobacterial activity against Mycobacterium vaccae 10670; type: functional, organism-based
[11] = tested on: Mycolicibacterium fortuitum; test: Antimycobacterial activity against Mycobacterium fortuitum B; type: functional, organism-based
[12] = tested on: Sporobolomyces salmonicolor; test: Antimicrobial activity against Sporobolomyces salmonicolor SBUG 549; type: functional, organism-based
Candida albicans = test: Antifungal activity against Candida albicans; type: functional, organism-based
Colletotrichum = test: Antifungal activity against Glomerella; type: functional, organism-based
Mycobacterium avium [13] = test: Antimycobacterial activity against Mycobacterium avium MAC 100; type: functional, organism-based
Mycobacterium avium [14] = test: Antimycobacterial activity against Mycobacterium avium MAC 101; type: functional, organism-based
Mycobacterium avium [15] = test: Antimycobacterial activity against Mycobacterium avium MAC 108; type: functional, organism-based
Mycobacterium avium [16] = test: Antimycobacterial activity against Mycobacterium avium MAC 109; type: functional, organism-based
Mycobacterium avium [17] = test: Antimycobacterial activity against Mycobacterium avium MAC 116; type: functional, organism-based
Mycolicibacterium vaccae [18] = test: Antimycobacterial activity against Mycobacterium vaccae 10670 by agar diffusion assay; type: functional, organism-based
[19] = tested on: Mycolicibacterium fortuitum; test: Antimycobacterial activity against Mycobacterium fortuitum B by agar diffusion assay; type: functional, organism-based
[20] = tested on: Mycobacterium tuberculosis; test: Antimycobacterial activity against Mycobacterium tuberculosis assessed as growth inhibition at 12.5 ug/mL; type: functional
Bacillus subtilis = test: Antibacterial activity against Bacillus subtilis ATCC 6633; type: functional, organism-based
Staphylococcus aureus = test: Antibacterial activity against Staphylococcus aureus SG 511; type: functional, organism-based
Micrococcus luteus = test: Antibacterial activity against Micrococcus luteus ATCC 10240; type: functional, organism-based
Mus musculus [21] = test: Toxicity in mouse assessed as change in body weight at 100 mg/kg, po qd for 5 days followed by 2 days rest and 200 mg/kg, po qd for 5 days; type: organism-based; details: in vivo
Mus musculus [22] = test: Toxicity in mouse assessed as change in gross appearance at 100 mg/kg, po qd for 5 days followed by 2 days rest and 200 mg/kg, po qd for 5 days; type: organism-based; details: in vivo
Mus musculus [23] = test: Toxicity in mouse assessed as behavioral change at 100 mg/kg, po qd for 5 days followed by 2 days rest and 200 mg/kg, po qd for 5 days; type: organism-based; details: in vivo
[24] = Chemical stability in simulated gastric fluid assessed as compound remaining after 2 hrs by HPLC analysis; type: physicochemical; details: simulated gi fluid
Liver microsomes = test: Metabolic stability in Sprague-Dawley rat microsomes assessed as compound remaining after 15 mins by HPLC analysis; type: ADME, Microsome; details: 0.25 h
[25] = tested on: Mycobacterium tuberculosis; test: Antimycobacterial activity against Mycobacterium tuberculosis H37Rv ATCC 27294 incubated 10 days under anaerobic condition measured after 24 hrs recovery in air by luciferase based low oxygen recovery assay; type: functional
[26] = tested on: Mycobacterium tuberculosis; test: Antimycobacterial activity against Mycobacterium tuberculosis Erdman infected in BALB/c mouse assessed as reduction of bacterial load at 50 mg/kg, po qd for 5 days per week administered 60 days after infection measured after 85 days post infection; type: functional, organism-based; parameters: dose 50 mg/kg
[27] = tested on: Mycobacterium tuberculosis; test: Antimycobacterial activity against Mycobacterium tuberculosis; type: functional

| Structure (SMILES) | MIC [2] [µM] | MIC [3] [µM] | IC50 (Vero) [µM] | Activity [4] | Activity (Escherichia coli) | Activity (Proteus vulgaris) | Activity [7] | Activity (Mycolicibacterium aurum [8]) | Activity (Mycolicibacterium aurum [9]) | Activity (Mycolicibacterium vaccae [10]) | Activity [11] | Activity [12] | Activity (Candida albicans) | Activity (Colletotrichum) | Activity (Mycobacterium avium [13]) | Activity (Mycobacterium avium [14]) | Activity (Mycobacterium avium [15]) | Activity (Mycobacterium avium [16]) | Activity (Mycobacterium avium [17]) | Activity (Mycolicibacterium vaccae [18]) | also measured |
| --- | --- | --- | --- | --- | --- | --- | --- | --- | --- | --- | --- | --- | --- | --- | --- | --- | --- | --- | --- | --- | --- |
| CO[C@H]1/C=C/O[C@@]2(C)Oc3c(C)c(O)c4c(O)c(c(/C=N/N5CCN(C)CC5)c(O)c4c3C2=O)NC(=O)/C(C)=C\C=C\[C@H](C)[C@H](O)[C@@H](C)[C@@H](O)[C@@H](C)[C@H](OC(C)=O)[C@@H]1C [RIFAMPIN] | 0.06 (≈ 0.0494 µg/mL) | 0.01 (≈ 0.00823 µg/mL) | 125 |  |  |  |  |  |  |  |  |  |  |  |  |  |  |  |  |  | fold change (FC) [1]: >2 |
| CCCCCCCCCCCCCCCC(=O)N(O)CCCC[C@H](NC(=O)[C@@H]1COC(c2ccccc2O)=N1)C(=O)OC[C@H](NC(=O)OC(C)(C)C)C(=O)N[C@H]1CCCCN(O)C1=O |  |  |  | inactive |  |  |  |  |  |  |  |  |  |  |  |  |  |  |  |  | MIC [5]: < 0.2 µM; MIC [6]: 0.2 µM (≈ 0.181 µg/mL) |
| CCCCCCCCCCCCCCCC(=O)N(O)CCCC[C@H](NC(=O)[C@@H]1COC(c2ccccc2O)=N1)C(=O)O[C@@H](C)CC(=O)N[C@H]1CCCCN(O)C1=O [MYCOBACTIN S] |  |  |  | inactive | inactive | inactive | inactive | inactive | inactive | inactive | inactive | inactive | inactive | inactive | inactive | inactive | inactive | inactive | inactive | Active | Activity [19]: Active; inhibition at 12.5 µg/mL [20]: 99%; MIC [6]: 3.1 µM (≈ 2.49 µg/mL); Activity (Bacillus subtilis): inactive; Activity (Staphylococcus aureus): inactive; Activity (Micrococcus luteus): inactive |
| O=C(OCc1ccccc1)[C@@H]1COC(c2ccccc2)=N1 | 7.2 (≈ 2.03 µg/mL) | 4.42 (≈ 1.24 µg/mL) | > 128 | inactive | inactive | inactive | inactive | inactive | inactive | inactive | inactive | inactive | inactive | inactive | inactive | inactive | inactive | inactive | inactive | inactive | Activity [19]: Active; Activity (Mus musculus [21]): Non-toxic; Activity (Mus musculus [22]): Non-toxic; Activity (Mus musculus [23]): Non-toxic; Stability [24]: 0.4%; Stability (Liver microsomes): 5.7%; MIC [25]: 63 µM (≈ 17.7 µg/mL); Activity (Bacillus subtilis): inactive; Activity (Staphylococcus aureus): inactive; Activity (Micrococcus luteus): inactive |
| O=C(OCc1ccccc1)c1coc(-c2ccccc2)n1 | 0.47 (≈ 0.131 µg/mL) | 0.49 (≈ 0.137 µg/mL) | 121 | inactive | inactive | inactive | inactive | inactive | inactive | inactive | inactive | inactive | inactive | inactive | inactive | inactive | inactive | inactive | inactive | Active | Activity [19]: Active; Activity (Mus musculus [21]): Non-toxic; Activity (Mus musculus [22]): Non-toxic; Activity (Mus musculus [23]): Non-toxic; Stability [24]: 0.5%; Stability (Liver microsomes): 15%; MIC [25]: 3.8 µM (≈ 1.06 µg/mL); Activity (Bacillus subtilis): inactive; Activity (Staphylococcus aureus): inactive; Activity (Micrococcus luteus): inactive |
| O=C(OCc1ccccc1)c1coc(-c2ccc(F)c([N+](=O)[O-])c2)n1 | 1.1 (≈ 0.377 µg/mL) | 0.48 (≈ 0.164 µg/mL) | > 128 | inactive | inactive | inactive | inactive | inactive | inactive | inactive | inactive | inactive | inactive | inactive | inactive | inactive | inactive | inactive | inactive | Active | Activity [19]: Active; Activity (Mus musculus [21]): 12%; Activity (Mus musculus [22]): Non-toxic; Activity (Mus musculus [23]): Non-toxic; Activity [26]: inactive; Stability [24]: 2.1%; Stability (Liver microsomes): 8.1%; MIC [25]: 31.9 µM (≈ 10.9 µg/mL); Activity (Bacillus subtilis): inactive; Activity (Staphylococcus aureus): inactive; Activity (Micrococcus luteus): inactive |
| O=C(OCc1ccccc1)[C@@H]1COC(c2ccccc2OCc2ccccc2)=N1 | 12.6 (≈ 4.88 µg/mL) |  | > 128 | inactive |  |  |  |  |  |  |  |  |  |  |  |  |  |  |  |  | Activity (Mus musculus [21]): Non-toxic; Activity (Mus musculus [22]): Non-toxic; Activity (Mus musculus [23]): Non-toxic; Stability [24]: 1.4%; Stability (Liver microsomes): 8.4%; MIC [27]: 7.7 µM (≈ 2.98 µg/mL); MIC [25]: 67.3 µM (≈ 26.1 µg/mL) |
